Columns and labels:
plasma GH concentrations = assay: Growth hormone releasing activity in the infant rat (plasma GH by RIA); format: in vivo, Sprague Dawley rats; details: Table 1 test series; male 10-day-old rats; 300 μg/kg subcutaneously; plasma 15 min later
Experimental: Male 10-day-old Sprague Dawley rats, about 25 g body weight were used.
One hour before the experiments, pups were separated from their respective dams and were divided randomly into groups of eight each.
Pups were acutely challenged subcutaneously with 100 μl of solvent (DMSO, final dilution 1:300 in physiological saline), hexarelin (Tyr-Ala-His-D-Mrp-Ala-Trp-D-Phe-Lys-NH2, used as a reference drug), or new compounds (300 μg/kg) and killed by decapitation 15 min later.
Trunk blood was collected and centrifuged immediately. Plasma samples were stored at −20° C. until assayed for the determination of plasma GH concentrations.
Growth hormone concentrations in plasma were measured by RIA using materials provided by the National Institute of Diabetes, Digestive and Kidney Diseases (NIDDK) of the National Institute of Health U.S.A.
Values were expressed in terms of the NIDDK-rat-GH-RP-2 standard (potency 21 U/mg) as ng/ml of plasma.
The minimum detectable value of rat GH was about 1.0 ng/ml, and intraassay variability was about 6%.

Concentration GH = assay: Time dependence of the oral activity in the dog (plasma GH); format: in vivo, dog (beagles); design: AUC (Area under the curve) of GH concentration: unit not given here; details: 1 mg/kg per os
Experimental: Furthermore the time dependence of the oral activity in the dog (1 mg/kg; per os) was estimated for example 1 (H-Aib-D-Trp-D-gTrp-CHO). Well-trained beagles of either sex, >10 year, 10-15 kg by weight, were used. Animals were fed normal dry food with water ad libitum and were on a 12 h-light/12 h-dark regimen with on at 7.00. The compound was administered orally to the dogs which had fasted since 16.00 of the preceding day. Blood samples were taken 20 min before administration, at administration and 15, 30, 60, 90, 120 and 180 min after administration.

CC(C)(N)C(=O)N[C@H](Cc1c[nH]c2ccccc12)C(=O)N[C@H](Cc1c[nH]c2ccccc12)NC=O [Example 1, H-Aib-D-Trp-D-gTrp-CHO]
GH (plasma GH concentrations): 158.8 ± 39.4 ng/mL | AUC (Area under the curve) of GH concentration (Concentration GH; MEAN VALUE of 6 dogs): 675.35 | Concentration GH (Concentration GH; MEAN VALUE of 6 dogs, t 0 min (at administration)): 1.79 ng/mL | Concentration GH (Concentration GH; MEAN VALUE of 6 dogs, t 15 min after administration): 5.32 ng/mL | Concentration GH (Concentration GH; MEAN VALUE of 6 dogs, t 30 min after administration): 5.5 ng/mL | Concentration GH (Concentration GH; MEAN VALUE of 6 dogs, t 60 min after administration): 3.52 ng/mL | Concentration GH (Concentration GH; MEAN VALUE of 6 dogs, t 90 min after administration): 3.59 ng/mL | Concentration GH (Concentration GH; MEAN VALUE of 6 dogs, t 120 min after administration): 3.42 ng/mL | Concentration GH (Concentration GH; MEAN VALUE of 6 dogs, t 180 min after administration): 3.04 ng/mL | Concentration GH (Concentration GH; MEAN VALUE of 6 dogs, t −20 min (before administration)): 2.07 ng/mL | AUC (Area under the curve) of GH concentration (Concentration GH; dog DAKOTA): 328.53 | Concentration GH (Concentration GH; dog DAKOTA, t 0 min (at administration)): 0.35 ng/mL | Concentration GH (Concentration GH; dog DAKOTA, t 15 min after administration): 2.11 ng/mL | Concentration GH (Concentration GH; dog DAKOTA, t 30 min after administration): 0.54 ng/mL | Concentration GH (Concentration GH; dog DAKOTA, t 60 min after administration): 0.17 ng/mL | Concentration GH (Concentration GH; dog DAKOTA, t 90 min after administration): 0.4 ng/mL | Concentration GH (Concentration GH; dog DAKOTA, t 120 min after administration): 3.58 ng/mL | Concentration GH (Concentration GH; dog DAKOTA, t 180 min after administration): 3.46 ng/mL | Concentration GH (Concentration GH; dog DAKOTA, t −20 min (before administration)): 0.48 ng/mL | AUC (Area under the curve) of GH concentration (Concentration GH; dog FORREST LEE): 888.91 | Concentration GH (Concentration GH; dog FORREST LEE, t 0 min (at administration)): 2.01 ng/mL | Concentration GH (Concentration GH; dog FORREST LEE, t 15 min after administration): 6.38 ng/mL | Concentration GH (Concentration GH; dog FORREST LEE, t 30 min after administration): 8.48 ng/mL | Concentration GH (Concentration GH; dog FORREST LEE, t 60 min after administration): 4.41 ng/mL | Concentration GH (Concentration GH; dog FORREST LEE, t 90 min after administration): 6.42 ng/mL | Concentration GH (Concentration GH; dog FORREST LEE, t 120 min after administration): 3.71 ng/mL | Concentration GH (Concentration GH; dog FORREST LEE, t 180 min after administration): 3.18 ng/mL | Concentration GH (Concentration GH; dog FORREST LEE, t −20 min (before administration)): 1.43 ng/mL | AUC (Area under the curve) of GH concentration (Concentration GH; dog JORMA): 658.38 | Concentration GH (Concentration GH; dog JORMA, t 0 min (at administration)): 2.75 ng/mL | Concentration GH (Concentration GH; dog JORMA, t 15 min after administration): 8.91 ng/mL | Concentration GH (Concentration GH; dog JORMA, t 30 min after administration): 6.85 ng/mL | Concentration GH (Concentration GH; dog JORMA, t 60 min after administration): 2.65 ng/mL | Concentration GH (Concentration GH; dog JORMA, t 90 min after administration): 2.47 ng/mL | Concentration GH (Concentration GH; dog JORMA, t 120 min after administration): 2.48 ng/mL | Concentration GH (Concentration GH; dog JORMA, t 180 min after administration): 2.82 ng/mL | Concentration GH (Concentration GH; dog JORMA, t −20 min (before administration)): 3.58 ng/mL | AUC (Area under the curve) of GH concentration (Concentration GH; dog MARKUS): 944.26 | Concentration GH (Concentration GH; dog MARKUS, t 0 min (at administration)): 2.55 ng/mL | Concentration GH (Concentration GH; dog MARKUS, t 15 min after administration): 6.11 ng/mL | Concentration GH (Concentration GH; dog MARKUS, t 30 min after administration): 6.9 ng/mL | Concentration GH (Concentration GH; dog MARKUS, t 60 min after administration): 6.51 ng/mL | Concentration GH (Concentration GH; dog MARKUS, t 90 min after administration): 5.18 ng/mL | Concentration GH (Concentration GH; dog MARKUS, t 120 min after administration): 4.54 ng/mL | Concentration GH (Concentration GH; dog MARKUS, t 180 min after administration): 4.12 ng/mL | Concentration GH (Concentration GH; dog MARKUS, t −20 min (before administration)): 2.45 ng/mL | AUC (Area under the curve) of GH concentration (Concentration GH; dog RAZ DEGAN): 510.64 | Concentration GH (Concentration GH; dog RAZ DEGAN, t 0 min (at administration)): 1.64 ng/mL | Concentration GH (Concentration GH; dog RAZ DEGAN, t 15 min after administration): 3.58 ng/mL | Concentration GH (Concentration GH; dog RAZ DEGAN, t 30 min after administration): 6.37 ng/mL | Concentration GH (Concentration GH; dog RAZ DEGAN, t 60 min after administration): 3.02 ng/mL | Concentration GH (Concentration GH; dog RAZ DEGAN, t 90 min after administration): 2.61 ng/mL | Concentration GH (Concentration GH; dog RAZ DEGAN, t 120 min after administration): 1.94 ng/mL | Concentration GH (Concentration GH; dog RAZ DEGAN, t 180 min after administration): 1.49 ng/mL | Concentration GH (Concentration GH; dog RAZ DEGAN, t −20 min (before administration)): 2.14 ng/mL | AUC (Area under the curve) of GH concentration (Concentration GH; dog TAYLOR): 721.34 | Concentration GH (Concentration GH; dog TAYLOR, t 0 min (at administration)): 1.41 ng/mL | Concentration GH (Concentration GH; dog TAYLOR, t 15 min after administration): 4.8 ng/mL | Concentration GH (Concentration GH; dog TAYLOR, t 30 min after administration): 3.89 ng/mL | Concentration GH (Concentration GH; dog TAYLOR, t 60 min after administration): 4.34 ng/mL | Concentration GH (Concentration GH; dog TAYLOR, t 90 min after administration): 4.43 ng/mL | Concentration GH (Concentration GH; dog TAYLOR, t 120 min after administration): 4.28 ng/mL | Concentration GH (Concentration GH; dog TAYLOR, t 180 min after administration): 3.18 ng/mL | Concentration GH (Concentration GH; dog TAYLOR, t −20 min (before administration)): 2.32 ng/mL

From patent US6861409B2, “Growth hormone secretagogues” (Zentaris AG, priority 2000, dated 2005)
